Results published in US6534514B1, “Kappa opioid receptor antagonists” (Regents of the University of Minnesota, priority 1993, dated 2003).

How the values were obtained:
mu opioid receptors [1] = conditions: antagonist 100 nM; agonist morphine
Protocol: (§1) Physiological data for guinea pig ileal longitudinal muscle (GPI) was obtained by the methodology of H. P. Rang, “Stimulant Actions of Volatile Anaesthetics on Smooth Muscle,” Brit. […] In vivo assays were done s.c. on mice.
(§2) 1. Guinea Pig Ileal Longitudinal Muscle (GPI). Ilea from guinea pigs were taken approximately 10 cm from the ileocecal junction, and a strip of longitudinal muscle with the myenteric plexus attached was prepared by the method of […] et al., Brit. […] A 1 cm portion of this strip was then mounted between two platinum electrodes placed in a 10 ml organ bath and connected to an isometric transducer; contractions were recorded on a polygraph. Contractions of the ileal strip were initiated by supramaximal rectangular pulses in all preparations (80 V of 0.5 ms duration at a frequency of 0.1 Hz). […] The organ bath was maintained at 36°-37° C. The longitudinal muscle strip was allowed to equilibrate with continuous stimulation for a minimum of 90 min. Cumulative concentration-response curves were determined after drugs were added to the bath in preselected amounts and washed out with buffer after noting their maximum effects.
(§3) Concentration-response curves were obtained in the absence (control) and the presence of the antagonist are expressed as IC50 values. The IC50 ratio represents the IC50 in the presence of the antagonist divided by the control IC50 value in the same tissue. Therefore, a high IC50 ratio represents a correspondingly high degree of antagonism at a particular receptor. This IC50 ratio was employed to calculate the Ke value using the equation Ke=[antagonist]/(IC50 ratio-1). Therefore, a low Ke represents a correspondingly high degree of binding at a particular receptor.

delta opioid receptors [2] = target: T1, delta opioid receptors (Mus musculus, UniProt P32300); test: Mouse vas deferens (MVD), antagonism of DADLE (D); assay type: cell-based; parameters: Both vasa deferentia were dissected out of mice and mounted singly; from tissue; host or cells: mouse vas deferens (Swiss-Webster males) for A3; whole mouse in vivo for A7; conditions: antagonist 100 nM; agonist DADLE
Protocol: 2. Mouse Vas Deferens (MVD). This assay was performed according to the description by G. Henderson et al., Brit. […] Both vasa deferentia were dissected out of mice and mounted singly through two platinum ring electrodes in a 10 ml organ bath. The bath contained Krebs bicarbonate solution that was continuously bubbled with 95% O2 and 5% CO2. The organ bath was maintained at 37° C. The tissue was attached to an isometric transducer and stimulated transmurally with rectangular pulses ([…], 1 ms duration, supramaximal voltage). Drugs were added cumulatively to the bath in preselected amounts and washed out after noting their maximum effects.
as §3

mu opioid receptors [3] = target: T2, mu opioid receptors (Mus musculus, UniProt P42866); test: Mouse writhing procedure, antagonism of morphine; assay type: in vivo; conditions: mice; agonist 50 nmol; antagonist 4 mg/kg sc
T2 construct: tested in vivo using the mouse writhing procedure of G. Hayashi et al; from tissue; host or cells: whole mouse in vivo (s.c. dosing)
Source text: (§4) Physiological data for guinea pig ileal longitudinal muscle (GPI) was obtained by the methodology of H. P. Rang, “Stimulant Actions of Volatile Anaesthetics on Smooth Muscle,” Brit. J. Pharmacol., 22, 356 (1964) on Dunkin-Hartley males; mouse vas deferens (MVD) data was obtained using Henderson's method on Swiss-Webster males (G. Henderson et al., “A New Example of a Morphine-Sensitive Neuroeffector Junction: Adrenergic Transmission in the Mouse vas Deferens,” Brit. J. Pharmacol., 46, 764 (1972). Guinea pig brain membrane binding assays were done on Dunkin-Hartley males using a modification of the method of L. L. Werling et al., “Opioid Binding to Rat and Guinea Pig Neural Membranes in the Presence of Physiological Cations at 37° C.,” J. Pharmacol. Exp. Ther., 233 722 (1985). In vivo assays were done s.c. on mice.
(§5) Compound δ was tested in vivo using the mouse writhing procedure of G. Hayashi et al., Eur. J. Pharmacol., 85, 163 (1982).

kappa receptors = target: T3, kappa receptors (Mus musculus, UniProt P33534); test: Mouse writhing procedure, antagonism of U50488H; assay type: in vivo, mice
T3 construct: tested in vivo using the mouse writhing procedure of G. Hayashi et al; from tissue; host or cells: whole mouse in vivo (s.c. dosing)
Source text: as §4, §5

delta opioid receptors [4] = target: T1, delta opioid receptors; test: Mouse writhing procedure, antagonism of DADLE; assay type: in vivo; conditions: mice; agonist 50 nmol; antagonist 4 mg/kg sc
Source text: as §4, §5

kappa opioid receptors = target: T4, kappa opioid receptors (Cavia porcellus, UniProt P41144); test: Guinea pig ileal longitudinal muscle (GPI), antagonism of ethylketazocine (EK); assay type: cell-based
T4 construct: a strip of longitudinal muscle with the myenteric plexus attached was prepared; from tissue; host or cells: guinea pig ileal longitudinal muscle with myenteric plexus (Dunkin-Hartley males)
Protocol: as §1, §2, §3

T1 sequence (P32300 whole entry): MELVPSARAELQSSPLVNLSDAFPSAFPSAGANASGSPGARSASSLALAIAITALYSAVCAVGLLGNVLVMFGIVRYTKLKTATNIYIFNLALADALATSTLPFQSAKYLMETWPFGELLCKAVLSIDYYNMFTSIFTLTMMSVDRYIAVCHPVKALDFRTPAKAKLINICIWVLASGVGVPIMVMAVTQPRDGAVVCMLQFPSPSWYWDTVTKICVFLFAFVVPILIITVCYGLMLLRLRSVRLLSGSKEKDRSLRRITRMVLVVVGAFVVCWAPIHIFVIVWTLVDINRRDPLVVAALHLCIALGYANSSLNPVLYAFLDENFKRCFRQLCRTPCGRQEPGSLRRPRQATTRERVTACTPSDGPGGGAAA
T4 sequence (P41144 whole entry): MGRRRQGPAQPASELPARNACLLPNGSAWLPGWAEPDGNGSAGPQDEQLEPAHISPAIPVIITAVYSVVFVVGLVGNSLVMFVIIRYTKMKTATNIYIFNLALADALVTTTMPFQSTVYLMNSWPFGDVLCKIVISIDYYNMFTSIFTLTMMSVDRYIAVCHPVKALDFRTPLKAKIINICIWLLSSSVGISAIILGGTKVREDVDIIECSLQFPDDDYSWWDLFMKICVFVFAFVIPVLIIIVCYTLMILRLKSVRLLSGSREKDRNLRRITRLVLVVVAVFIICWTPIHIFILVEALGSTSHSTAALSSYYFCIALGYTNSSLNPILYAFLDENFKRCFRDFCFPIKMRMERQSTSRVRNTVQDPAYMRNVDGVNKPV
T3 sequence (P33534 whole entry): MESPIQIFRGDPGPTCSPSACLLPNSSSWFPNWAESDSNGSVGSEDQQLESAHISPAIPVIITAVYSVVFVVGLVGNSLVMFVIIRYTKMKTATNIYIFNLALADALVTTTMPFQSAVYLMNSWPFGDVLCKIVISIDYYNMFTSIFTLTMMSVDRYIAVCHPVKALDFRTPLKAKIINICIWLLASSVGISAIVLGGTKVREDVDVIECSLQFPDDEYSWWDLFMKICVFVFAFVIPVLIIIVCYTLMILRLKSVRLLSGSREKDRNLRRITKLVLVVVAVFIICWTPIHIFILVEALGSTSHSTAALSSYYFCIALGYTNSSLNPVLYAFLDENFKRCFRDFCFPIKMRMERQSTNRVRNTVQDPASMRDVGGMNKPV
T2 sequence (P42866 whole entry): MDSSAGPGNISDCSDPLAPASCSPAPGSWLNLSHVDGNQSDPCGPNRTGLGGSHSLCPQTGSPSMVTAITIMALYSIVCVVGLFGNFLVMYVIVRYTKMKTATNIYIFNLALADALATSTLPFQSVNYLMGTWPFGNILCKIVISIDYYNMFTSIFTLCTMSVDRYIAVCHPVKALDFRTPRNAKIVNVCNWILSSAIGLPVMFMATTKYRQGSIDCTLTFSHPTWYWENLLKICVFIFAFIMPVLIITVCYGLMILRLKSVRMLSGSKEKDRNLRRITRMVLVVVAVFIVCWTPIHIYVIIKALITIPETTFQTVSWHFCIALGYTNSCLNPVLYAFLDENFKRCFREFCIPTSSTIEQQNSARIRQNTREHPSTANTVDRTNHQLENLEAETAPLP

17-(Cyclopropylmethyl)-6,7-dehydro-4,5α-epoxy-3,14-dihydroxy-5-[(N^2-pentanamidino)methyl]-6,7-2′,3′-indolomorphinan Dihydrochloride [Compound 6]
IC50 ratio, M (GPI) (mu opioid receptors [1]): 15.7 ± 4.0
Ke, M (GPI) (mu opioid receptors [1]): 6.80 nM
IC50 ratio, D (MVD) (delta opioid receptors [2]): 4.71 ± 1.06
Ke, D (MVD) (delta opioid receptors [2]): 26.9 nM
ED50 ratio [(agonist + 6)/agonist control], morphine (mu opioid receptors [3]): 1.63
ED50 ratio [(agonist + 6)/agonist control], U50488H (kappa receptors; mice, agonist 50 nmol, antagonist 4 mg/kg sc): 3.77
antagonist selectivity in the whole animal model (kappa receptors; mouse writhing, 4 mg/kg sc): selective kappa antagonist
ED50 ratio [(agonist + 6)/agonist control], DADLE (delta opioid receptors [4]): 0.25
Selectivity κ/μ (kappa opioid receptors; GPI EK versus GPI morphine): 28
Selectivity κ/δ (kappa opioid receptors; GPI EK versus MVD DADLE): 93
kappa antagonist potency compared with norBNI (kappa opioid receptors; GPI, EK): more potent
kappa selectivity compared with norBNI (kappa opioid receptors; GPI/MVD): more selective
potency and selectivity compared with norBNI (kappa opioid receptors; GPI/MVD): more potent and selective
Kb (kappa opioid receptors; antagonist 100 nM, 15 min incubation, agonist ethylketazocine, Ke=[antagonist]/(IC50 ratio-1)): 230 pM
IC50 ratio, EK (GPI) (kappa opioid receptors; antagonist 100 nM, IC50 agonist + antagonist/IC50 agonist, agonist ethylketazocine): 439 ± 100
